Laboratory results taken from patent publication US12257287B2, “Glucagon-derived peptide and use thereof” (Tianjin Institute of Pharmaceutical Research Co., Ltd., priority 2018, dated 2025).
Numbered stars: 1 amine (or outer) side, 2 acyl side, 3 side chain; on linkers, the order of the positions; unused ones are H or OH. Square brackets hold non-standard residues; d marks the D form. Side chains are listed from the residue outwards. Peptide text beside a SMILES is read from it. * marks the point of attachment. C18 diacid = O=C(O)CCCCCCCCCCCCCCCCC(=O)*; γGlu = O=C(O)[C@H](CCC(=O)[*:2])N[*:1]; AEEA = NCCOCCOCC(=O)O; Aib = CC(C)(N)C(=O)O

Experiments:
GC receptor = target: T1, GC receptor (Homo sapiens, UniProt P47871); test: GC receptor mediated cAMP production in vitro (HEK293 cells transfected with GC receptor); type: cell-based; details: 20 min at 37° C., read-out: GCGR (nM EC50)
T1 construct: expressed in transfected cells; host or cells: HEK293 cells
T1 sequence (P47871 26-477): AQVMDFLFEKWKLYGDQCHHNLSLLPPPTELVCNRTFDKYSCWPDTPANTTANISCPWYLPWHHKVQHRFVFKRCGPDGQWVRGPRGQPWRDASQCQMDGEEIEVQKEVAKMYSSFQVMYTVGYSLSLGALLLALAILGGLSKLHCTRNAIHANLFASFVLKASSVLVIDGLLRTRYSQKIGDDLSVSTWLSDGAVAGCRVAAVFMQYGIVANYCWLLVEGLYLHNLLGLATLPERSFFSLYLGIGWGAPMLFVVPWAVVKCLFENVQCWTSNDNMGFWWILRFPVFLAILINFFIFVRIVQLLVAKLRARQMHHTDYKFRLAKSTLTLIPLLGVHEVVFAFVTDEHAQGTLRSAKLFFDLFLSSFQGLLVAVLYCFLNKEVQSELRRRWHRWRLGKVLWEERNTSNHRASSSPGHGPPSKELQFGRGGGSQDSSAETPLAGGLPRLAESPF
Description: The medium was removed, the cells were lysed, and cAMP values were detected referring to the detection method described for the assay kit.

physchem = type: physicochemical; details: pH 7.5, Solubility
Description: 2 mg of the compound was weighed, dissolved in 1 ml of phosphate buffer solutions with different concentrations (10, 20 mM) and different pH values (7.5, 8.0), and centrifuged, and supernatant was taken. The peak area was measured by HPLC (chromatographic column: Aeris widepore XB-C18 3.6 mm, 4.6×150 mm; mobile phase: A: 0.05% TFA, B: 95% acetonitrile; detection wavelength: 214 nm) and compared with a corresponding sample standard solution, and the relative concentration of the test sample solution is calculated.
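Throughout, for Solubility: compound added at 2 mg per mL of phosphate buffer, with the dissolved amount determined in the supernatant.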

Compound	EC50 (GC receptor) [nM]	solubility (physchem; pH 7.5, 10 mM phosphate buffer) [µg/mL]	solubility (physchem; pH 7.5, 20 mM phosphate buffer) [µg/mL]
CC[C@H](C)[C@H](NC(=O)[C@H](Cc1ccccc1)NC(=O)[C@H](CCC(=O)O)NC(=O)[C@H](CCCCN)NC(=O)[C@H](C)NC(=O)[C@H](CCCNC(=N)N)NC(=O)[C@H](CCCCN)NC(=O)[C@H](CCC(=O)O)NC(=O)[C@H](CC(=O)O)NC(=O)[C@H](CC(C)C)NC(=O)[C@H](Cc1ccc(O)cc1)NC(=O)[C@H](CCCCN)NC(=O)[C@H](CO)NC(=O)[C@H](CCCCNC(=O)COCCOCCNC(=O)COCCOCCNC(=O)CC[C@H](NC(=O)CCCCCCCCCCCCCCCCC(=O)O)C(=O)O)NC(=O)[C@H](CC(=O)O)NC(=O)[C@H](CO)NC(=O)[C@@H](NC(=O)[C@H](Cc1ccccc1)NC(=O)[C@@H](NC(=O)CNC(=O)[C@H](CCC(N)=O)NC(=O)C(C)(C)NC(=O)[C@@H](N)Cc1c[nH]cn1)[C@@H](C)O)[C@@H](C)O)C(=O)N[C@@H](CCC(=O)O)C(=O)N[C@@H](Cc1c[nH]c2ccccc12)C(=O)N[C@@H](CC(C)C)C(=O)N[C@@H](CCC(=O)O)C(=O)N[C@@H](C)C(=O)NCC(=O)NCC(=O)N1CCC[C@H]1C(=O)N[C@@H](CO)C(=O)N[C@@H](CO)C(=O)NCC(N)=O [Compound 23] (H-H[Aib]QGTFTSDK([AEEA-AEEA-γGlu-C18 diacid])SKYLDEKRAKEFIEWLEAGGPSSG-NH2; N-terminus assumed)	0.329	–	–
CCCCCCCCCCCCCCCC(=O)N[C@@H](CCC(=O)N[C@@H](CCC(=O)NCCCC[C@H](NC(=O)[C@H](C)NC(=O)[C@H](CCCNC(=N)N)NC(=O)[C@H](CCCCN)NC(=O)[C@H](CCC(=O)O)NC(=O)[C@H](CCC(=O)O)NC(=O)[C@H](CC(C)C)NC(=O)[C@H](Cc1ccc(O)cc1)NC(=O)[C@H](CCCCN)NC(=O)[C@H](CO)NC(=O)[C@H](Cc1ccc(O)cc1)NC(=O)[C@H](CC(=O)O)NC(=O)[C@H](CO)NC(=O)[C@@H](NC(=O)[C@H](Cc1ccccc1)NC(=O)[C@@H](NC(=O)CNC(=O)[C@H](CCC(N)=O)NC(=O)C(C)(C)NC(=O)[C@@H](N)Cc1c[nH]cn1)[C@@H](C)O)[C@@H](C)O)C(=O)N[C@@H](CCC(=O)O)C(=O)N[C@@H](Cc1ccccc1)C(=O)N[C@H](C(=O)N[C@@H](CCC(=O)O)C(=O)N[C@@H](Cc1c[nH]c2ccccc12)C(=O)N[C@@H](CC(C)C)C(=O)N[C@@H](CCC(=O)O)C(=O)NCC(=O)NCC(=O)N1CCC[C@H]1C(=O)N[C@@H](CO)C(=O)N[C@@H](CO)C(=O)NCC(N)=O)C(C)C)C(=O)O)C(=O)O [Compound 76] (HELM PEPTIDE1{H.[Aib].Q.G.T.F.T.S.D.Y.S.K.Y.L.E.E.K.R.A.K.E.F.V.E.W.L.E.G.G.P.S.S.G.[am]}|PEPTIDE2{[CCCCCCCCCCCCCCCC(=O)[*:2]].[gGlu].[gGlu]}$PEPTIDE1,PEPTIDE2,20:R3-3:R2$$$V2.0; N-terminus assumed)	0.191	–	–
CC[C@H](C)[C@H](NC(=O)[C@H](Cc1ccccc1)NC(=O)[C@H](CCC(=O)O)NC(=O)[C@H](CCCCNC(=O)COCCOCCNC(=O)COCCOCCNC(=O)CC[C@H](NC(=O)CCCCCCCCCCCCCCCCC(=O)O)C(=O)O)NC(=O)[C@H](C)NC(=O)[C@H](CCCNC(=N)N)NC(=O)[C@H](CCCCN)NC(=O)[C@H](CCC(=O)O)NC(=O)[C@H](CC(=O)O)NC(=O)[C@H](CC(C)C)NC(=O)[C@H](Cc1ccc(O)cc1)NC(=O)[C@H](CCCCN)NC(=O)[C@H](CO)NC(=O)[C@H](Cc1ccc(O)cc1)NC(=O)[C@H](CC(=O)O)NC(=O)[C@H](CO)NC(=O)[C@@H](NC(=O)[C@H](Cc1ccccc1)NC(=O)[C@@H](NC(=O)CNC(=O)[C@H](CCC(N)=O)NC(=O)C(C)(C)NC(=O)[C@@H](N)Cc1c[nH]cn1)[C@@H](C)O)[C@@H](C)O)C(=O)N[C@@H](C)C(=O)N[C@@H](Cc1c[nH]c2ccccc12)C(=O)N[C@@H](CC(C)C)C(=O)N[C@@H](CCC(=O)O)C(=O)N[C@@H](C)C(=O)NCC(=O)NCC(=O)N1CCC[C@H]1C(=O)N[C@@H](CO)C(=O)N[C@@H](CO)C(=O)NCC(N)=O [Compound 50] (H-H[Aib]QGTFTSDYSKYLDEKRAK([AEEA-AEEA-γGlu-C18 diacid])EFIAWLEAGGPSSG-NH2; N-terminus assumed)	0.048	–	–
CC(C)C[C@H](NC(=O)[C@H](Cc1c[nH]c2ccccc12)NC(=O)[C@H](C)NC(=O)[C@@H](NC(=O)[C@H](Cc1ccccc1)NC(=O)[C@H](CCC(=O)O)NC(=O)[C@H](CCCCN)NC(=O)[C@H](C)NC(=O)[C@H](C)NC(=O)[C@H](CCCNC(=N)N)NC(=O)[C@H](CCC(=O)O)NC(=O)[C@H](CCC(=O)O)NC(=O)[C@H](CC(C)C)NC(=O)[C@H](Cc1ccc(O)cc1)NC(=O)[C@H](CCCCN)NC(=O)[C@H](CO)NC(=O)[C@H](CCCCNC(=O)COCCOCCNC(=O)COCCOCCNC(=O)CC[C@H](NC(=O)CCCCCCCCCCCCCCCCC(=O)O)C(=O)O)NC(=O)[C@H](CC(=O)O)NC(=O)[C@H](CO)NC(=O)[C@@H](NC(=O)[C@H](Cc1ccccc1)NC(=O)[C@@H](NC(=O)CNC(=O)[C@H](CCC(N)=O)NC(=O)C(C)(C)NC(=O)[C@@H](N)Cc1c[nH]cn1)[C@@H](C)O)[C@@H](C)O)C(C)C)C(=O)N[C@@H](CCCCN)C(=O)N[C@@H](CCC(=O)O)C(=O)NCC(=O)NCC(=O)N1CCC[C@H]1C(=O)N[C@@H](CO)C(=O)N[C@@H](CO)C(=O)NCC(N)=O [Compound 17] (H-H[Aib]QGTFTSDK([AEEA-AEEA-γGlu-C18 diacid])SKYLEERAAKEFVAWLKEGGPSSG-NH2; N-terminus assumed)	0.486	–	–
CC(C)C[C@H](NC(=O)[C@H](Cc1c[nH]c2ccccc12)NC(=O)[C@H](C)NC(=O)[C@@H](NC(=O)[C@H](Cc1ccccc1)NC(=O)[C@H](CCC(=O)O)NC(=O)[C@H](CCCCN)NC(=O)[C@H](C)NC(=O)[C@H](C)NC(=O)[C@H](CCCNC(=N)N)NC(=O)[C@H](CCC(=O)O)NC(=O)[C@H](CC(=O)O)NC(=O)[C@H](CC(C)C)NC(=O)[C@H](Cc1ccc(O)cc1)NC(=O)[C@H](CCCCN)NC(=O)[C@H](CO)NC(=O)[C@H](CCCCNC(=O)COCCOCCNC(=O)COCCOCCNC(=O)CC[C@H](NC(=O)CCCCCCCCCCCCCCCCC(=O)O)C(=O)O)NC(=O)[C@H](CC(=O)O)NC(=O)[C@H](CO)NC(=O)[C@@H](NC(=O)[C@H](Cc1ccccc1)NC(=O)[C@@H](NC(=O)CNC(=O)[C@H](CCC(N)=O)NC(=O)C(C)(C)NC(=O)[C@@H](N)Cc1c[nH]cn1)[C@@H](C)O)[C@@H](C)O)C(C)C)C(=O)N[C@@H](CCC(=O)O)C(=O)N[C@@H](C)C(=O)NCC(=O)NCC(=O)N1CCC[C@H]1C(=O)N[C@@H](CO)C(=O)N[C@@H](CO)C(=O)NCC(N)=O [Compound 24] (H-H[Aib]QGTFTSDK([AEEA-AEEA-γGlu-C18 diacid])SKYLDERAAKEFVAWLEAGGPSSG-NH2)	–	> 2000	> 2000
